pIC50: −log10 of the molar value.
Columns and labels:
[1] = tested on: S. Typhimurium SL1344 (sifB::gfp) in RAW 264.7 macrophages; test: SAFIRE macrophage assay: intracellular bacterial load (GFP signal within macrophages); assay type: cell-based, Salmonella enterica serotype Typhimurium; conditions: for pIC50: Salmonella enterica, TYPHIMURIUM, RAW264.7, read-out: SAFIRE IC50
Outline: (§1)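 Compound or DMSO added 2 h after gentamicin-protected infection (MOI ~30, sifB::gfp SL1344) of RAW 264.7 cells and left to 18 h. Fixed cells imaged; intracellular GFP area per macrophage gives bacterial load, while retained adherent MitoTracker Red-stained macrophages define host toxicity.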

RAW 264.7 macrophages = test: SAFIRE macrophage assay: host toxicity (adherent macrophage count, morphology); assay type: cell-based
Outline: as §1

[2] = 5 uM, 'Toxic' given instead of a score
[3] = 25 uM, 'Toxic' given instead of a score
[4] = 5 uM compound, n=1, DMSO solvent control = 98, rifampicin 2 μg/mL = 65
[5] = 25 uM compound, n=1, DMSO solvent control = 98, rifampicin 2 μg/mL = 65
[6] = 5 uM compound, n=1, DMSO solvent control = 100
[7] = 25 uM compound, n=1, DMSO solvent control = 100

Row | SMILES | 5 uM Avg Antibacterial Score [1, 2] | 25 uM Avg Antibacterial Score [1, 3] | 5 uM Avg Cell # Score (RAW 264.7 macrophages; 5 uM) | 25 uM Avg Cell # Score (RAW 264.7 macrophages; 25 uM) | pIC50 [1] | 5 uM Avg Antibacterial Score [1, 4] | 25 uM Avg Antibacterial Score [1, 5] | 5 uM Avg Cell # Score (RAW 264.7 macrophages; [6]) | 25 uM Avg Cell # Score (RAW 264.7 macrophages; [7])
1 | OC(COc1cnsn1)CN1CCC(Nc2nccc(C(F)(F)F)n2)CC1 (stereo not shown) [CU118] | 102 | 80 | 89 | 124 |  |  |  |  | 
2 | CCN(CC(O)COc1ccc(Cl)c(Cl)c1)CC1CCOC1 (stereo not shown) [CU123] | 98 | 28 | 85 | 84 |  |  |  |  | 
3 | OC(COc1ccc(Cl)c(Cl)c1)CN1CCC(n2ccnc2)CC1 (stereo not shown) [CU179] | 36 | 19 | 98 | 91 | 7.35 |  |  |  | 
4 | CN(CC(O)COc1ccc(Cl)c(Cl)c1)C1CCNCC1 (stereo not shown) [CU177] | 45 | 16 | 101 | 96 |  |  |  |  | 
5 | O[C@@H](COc1ccc(Cl)c(Cl)c1)CN1CCCC1 [CU254] |  |  |  |  |  | 89 | 51 | 119 | 125
6 | OC(COc1cc(Cl)cc(Cl)c1)CN1CCC(Nc2nccc(C(F)(F)F)n2)C1 (stereo not shown) [CU088] | 22 | Toxic | 101 | 98 |  |  |  |  | 
7 | OC(COc1ccc(Cl)c(Cl)c1)CN1CCCN(c2nccc(C(F)(F)F)n2)CC1 (stereo not shown) [CU055] | Toxic | Toxic | 77 | 99 |  |  |  |  | 
8 | N[C@H]1CCN(C[C@H](O)COc2ccc(Cl)c(Cl)c2)C1 [CU238] |  |  |  |  |  | 34 | 12 | 126 | 102
9 | O=C(C1CCN(CC(O)COc2ccc(Cl)c(Cl)c2)CC1)N1CCCC1 (stereo not shown) [CU062] | 95 | 48 | 103 | 145 |  |  |  |  | 
10 | O=C(O)C1CCN(CC(O)COc2ccc(Cl)c(Cl)c2)CC1 (stereo not shown) [CU073] | 102 | 101 | 100 | 140 |  |  |  |  | 
11 | OC(CNCc1ccc2c(c1)OC(F)(F)O2)COc1ccc(Cl)c(Cl)c1 (stereo not shown) [CU134] | 61 | Toxic | 84 | 91 |  |  |  |  | 
12 | N[C@@H]1CCN(C[C@@H](O)COc2ccc(Cl)c(Cl)c2)C1 [CU239] |  |  |  |  | 7.87 | 25 | 8 | 129 | 104
13 | NCCC1CCN(CC(O)COc2cc(Cl)cc(Cl)c2)C1 (stereo not shown) [CU252] |  |  |  |  |  | 98 | 77 | 114 | 117
14 | CC(C)C(=O)NC1CCN(CC(O)COc2ccc(Cl)c(Cl)c2)C1 (stereo not shown) [CU069] | 95 | 52 | 96 | 94 |  |  |  |  | 
15 | COc1ccccc1OCC(O)CN1CCC(Nc2nccc(C(F)(F)F)n2)C1 (stereo not shown) [CU095] | 100 | 43 | 88 | 83 |  |  |  |  | 
16 | NC1CCN(CC(O)COc2ccc(F)c(F)c2)C1 (stereo not shown) [CU172] | 70 | 57 | 108 | 103 |  |  |  |  | 
17 | N[C@H]1CC[C@@H](NCC(O)COc2cc(Cl)cc(Cl)c2)CC1 (stereo partly shown) [CU216] | 52 | Toxic | 102 | 22 |  |  |  |  | 
18 | CCOC(=O)c1cccc(OCC(O)CN2CCC(Nc3nccc(C(F)(F)F)n3)CC2)c1 (stereo not shown) [CU104] | 13 | Toxic | 98 | 61 |  |  |  |  | 
19 | OC(COc1ccccc1Cl)CN1CCC(NC2CC2)C1 (stereo not shown) [CU141] | 81 | 79 | 116 | 137 |  |  |  |  | 
20 | CC1(N)CCN(CC(O)COc2ccc(Cl)c(Cl)c2)CC1 (stereo not shown) [CU235] |  |  |  |  |  | 20 | 14 | 125 | 84
21 | NC1CCN(CC(O)COc2ccc(F)c(F)c2)CC1 (stereo not shown) [CU171] | 61 | 45 | 108 | 96 |  |  |  |  | 
22 | OC(COc1ccc(Cl)c(Cl)c1)CN1CCn2c([3F])nnc2C1 (stereo not shown) [CU157] | 115 | 109 | 109 | 106 |  |  |  |  | 

Row | SMILES | 5 uM Avg Antibacterial Score [1, 2] | 25 uM Avg Antibacterial Score [1, 3] | 5 uM Avg Cell # Score (RAW 264.7 macrophages; 5 uM) | 25 uM Avg Cell # Score (RAW 264.7 macrophages; 25 uM) | pIC50 [1] | 5 uM Avg Antibacterial Score [1, 4] | 25 uM Avg Antibacterial Score [1, 5] | 5 uM Avg Cell # Score (RAW 264.7 macrophages; [6]) | 25 uM Avg Cell # Score (RAW 264.7 macrophages; [7])
23 | OC(COc1cc(Cl)cc(Cl)c1)CN1CCN(Cc2cccc3ccccc23)CC1 (stereo not shown) [CU213] | Toxic | Toxic | 41 | 15 |  |  |  |  | 
24 | COC(=O)c1ccc(OCC(O)CN2CCC(Nc3nccc(C(F)(F)F)n3)C2)cc1 (stereo not shown) [CU091] | 97 | 9.52 | 89 | 95 |  |  |  |  | 
25 | CCN(CC)C(=O)C1CCN(CC(O)COc2ccc(Cl)c(Cl)c2)CC1 (stereo not shown) [CU059] | 97 | 46 | 105 | 88 |  |  |  |  | 
26 | OC(COc1cc(Cl)cc(Cl)c1)CN1CCCC1 (stereo not shown) [CU248] |  |  |  |  |  | 93 | 48 | 115 | 108
27 | CC(=O)N(C)C1CCN(CC(O)COc2ccc(Cl)c(Cl)c2)CC1 (stereo not shown) [CU064] | 106 | 90 | 86 | 82 |  |  |  |  | 
28 | OC(CNCCNc1nccc(C(F)(F)F)n1)COc1ccc(Cl)c(Cl)c1 (stereo not shown) [CU070] | Toxic | Toxic | 49 | 65 |  |  |  |  | 
29 | OC(COc1ccc(Cl)c(Cl)c1)CN1C2CCC1COC2 (stereo not shown) [CU222] | 101 | 72 | 108 | 103 |  |  |  |  | 
30 | OC(COc1cccc(C(F)(F)F)c1)CN1CCC(Nc2nccc(C(F)(F)F)n2)C1 (stereo not shown) [CU092] | 41 | Toxic | 86 | 72 |  |  |  |  | 
31 | N#Cc1ccccc1OCC(O)CN1CCC(Nc2nccc(C(F)(F)F)n2)C1 (stereo not shown) [CU093] | 102 | 58 | 93 | 79 |  |  |  |  | 
32 | OC(COc1ccc(Cl)cc1)CN1CCC(Nc2ncccn2)CC1 (stereo not shown) [CU044] | 91 | 36 | 84 | 100 |  |  |  |  | 
33 | Cc1noc(CN(C)CC(O)COc2ccc(Cl)c(Cl)c2)n1 (stereo not shown) [CU131] | 101 | 86 | 88 | 80 |  |  |  |  | 
34 | CN1CCN(CC(O)COc2ccc(Cl)c(Cl)c2)CC1=O (stereo not shown) [CU220] | 104 | 105 | 116 | 105 |  |  |  |  | 
35 | OC(COc1ccc(Cl)cc1Br)CN1CCC(Nc2nccc(C(F)(F)F)n2)CC1 (stereo not shown) [CU120] | 13 | Toxic | 74 | 46 |  |  |  |  | 
36 | Cc1nnc(CN(C)CC(O)COc2ccc(Cl)c(Cl)c2)o1 (stereo not shown) [CU130] | 98 | 85 | 100 | 73 |  |  |  |  | 
37 | NC1CCCN(CC(O)COc2cc(Cl)cc(Cl)c2)CC1 (stereo not shown) [CU231] |  |  |  |  |  | 22 | Toxic | 112 | 19
38 | OC(COc1ccc(Cl)c(Cl)c1)CN1CCN(c2nccc(C(F)(F)F)n2)CC1 (stereo not shown) [CU061] | Toxic | Toxic | 74 | 101 |  |  |  |  | 
39 | O=C1OC(COc2ccc(Cl)c(Cl)c2)CN1C1CCNC1 (stereo not shown) [CU146] | 89 | 51 | 95 | 117 |  |  |  |  | 
40 | NCC1CCN(CC(O)COc2ccc(Cl)c(Cl)c2)CC1 (stereo not shown) [CU205] | 12 | Toxic | 131 | 13 |  |  |  |  | 
41 | OC(COc1cccc2ccccc12)CN1CCC(Nc2nccc(C(F)(F)F)n2)CC1 (stereo not shown) [CU079] | 6.41 | Toxic | 86 | 89 |  |  |  |  | 
42 | OC(COc1ccc(Cl)c(Cl)c1)CN1CCC2(CCOCC2)C1 (stereo not shown) [CU129] | 95 | 39 | 100 | 88 |  |  |  |  | 
43 | OC(COc1cccc2[nH]ccc12)CN1CCC(Nc2nccc(C(F)(F)F)n2)CC1 (stereo not shown) [CU116] | 90 | 6.41 | 99 | 94 |  |  |  |  | 
44 | NC1CCN(CC(O)COc2cccc(Cl)c2)CC1 (stereo not shown) [CU188] | 33 | 25 | 110 | 111 |  |  |  |  | 

Reference: publication PMC10746280, “Bacterial efflux pump modulators prevent bacterial growth in macrophages and under broth conditions that mimic the host environment” (mBio, 2023)
